{"source": "paper PMC10323144", "about": "“Garbage in, garbage out: how reliable training data improved a virtual screening approach against SARS-CoV-2 MPro” (Frontiers in Pharmacology, 2023)", "note": "Square brackets hold non-standard residues; d marks the D form. Peptide text beside a SMILES is read from it. * marks the point of attachment. Bn = c1ccc(C*)cc1; Sar = CNCC(=O)O"}
{"molecular_target": "SARS-CoV-2 MPro (Severe acute respiratory syndrome coronavirus 2, UniProt P0DTD1)", "test": "MPro activity assay (de-quenching of Edans fluorescence on cleavage of a Dabcyl/Edans peptide)", "type": "biochemical", "conditions": "25 μM where stated"}
{"smiles": "O=C(O[C@@H]1Cc2c(O)cc(O)cc2O[C@@H]1c1ccc(O)c(O)c1)c1cc(O)c(O)c(O)c1", "note": "[5b, epicatechin gallate]", "activity against MPro (in words)": "full inhibition"}
{"molecular_target": "SARS-CoV-2 MPro (Severe acute respiratory syndrome coronavirus 2, UniProt P0DTD1)", "test": "MPro activity assay (de-quenching of Edans fluorescence on cleavage of a Dabcyl/Edans peptide)", "type": "biochemical", "conditions": "60 min pre-incubation, 5 μM substrate", "units": {"IC50": "nM"}}
{"smiles": "O=C(/C=C/c1ccc2ccccc2c1)c1ccccc1O", "note": "[25d]", "IC50": 500}
{"smiles": "Cc1ccc(S(=O)(=O)Nc2nc3cc(Cl)c(Oc4cccc(Cl)c4Cl)cc3[nH]2)cc1", "note": "[Cpd 31]", "IC50": "> 25000"}
{"molecular_target": "SARS-CoV-2 MPro (Severe acute respiratory syndrome coronavirus 2, UniProt P0DTD1)", "test": "MPro activity assay (de-quenching of Edans fluorescence on cleavage of a Dabcyl/Edans peptide)", "type": "biochemical", "conditions": "in-house acquired data, internal screening under standardized conditions (128 compounds)"}
{"smiles": "COc1ccc(Cn2sc3ccccc3c2=O)cc1", "note": "[COV19009]", "Class (MPro activity class)": "1 (Compounds with IC50 < 10 µM or with a percentage of enzyme inhibition >50% at 10 µM were labelled as ACTIVE)"}
{"smiles": "COc1cccc(-n2c(NCCN3CCNCC3)nc3sc4c(c3c2=O)CCCC4)c1", "note": "[Cpd 52]", "Class (MPro activity class)": "0 (compounds with IC50 > 20 μM, percentage inhibition <80% at 20 µM or 50 μM, or percentage enzyme inhibition <50% at 10 µM were labelled as INACTIVE)"}
{"smiles": "Cc1cccc2c(=O)n(-c3ccccc3)sc12", "note": "[COV19017]", "Class (MPro activity class)": "0 (compounds with IC50 > 20 μM, percentage inhibition <80% at 20 µM or 50 μM, or percentage enzyme inhibition <50% at 10 µM were labelled as INACTIVE)"}
{"smiles": "Cc1cc(Cl)cc2sn(Cc3ccccc3)c(=O)c12", "note": "[COV19006]", "Class (MPro activity class)": "1 (Compounds with IC50 < 10 µM or with a percentage of enzyme inhibition >50% at 10 µM were labelled as ACTIVE)"}
{"smiles": "CC(=NNC(=S)Nc1ccccc1)c1cc2ccccc2oc1=O", "note": "[COV19139]", "Class (MPro activity class)": "0 (compounds with IC50 > 20 μM, percentage inhibition <80% at 20 µM or 50 μM, or percentage enzyme inhibition <50% at 10 µM were labelled as INACTIVE)"}
{"smiles": "CNC(=S)NN=C(C)c1c(O)c2ccccc2oc1=O", "note": "[COV19141]", "Class (MPro activity class)": "0 (compounds with IC50 > 20 μM, percentage inhibition <80% at 20 µM or 50 μM, or percentage enzyme inhibition <50% at 10 µM were labelled as INACTIVE)"}
{"smiles": "Nc1ncc2cc(-c3c(F)cccc3F)c(N)nc2n1", "note": "[ZEA107]", "Class (MPro activity class)": "0 (compounds with IC50 > 20 μM, percentage inhibition <80% at 20 µM or 50 μM, or percentage enzyme inhibition <50% at 10 µM were labelled as INACTIVE)"}
{"smiles": "CN1CC(=O)NC(Cc2ccccc2)C(=O)N(C)CC(=O)NC(CSCc2ccccc2)C1=O", "note": "(stereo not drawn) [vCOV194219] (cyclo([Sar]C(Bn)[Sar]F); configuration not given here)", "Class (MPro activity class)": "0 (compounds with IC50 > 20 μM, percentage inhibition <80% at 20 µM or 50 μM, or percentage enzyme inhibition <50% at 10 µM were labelled as INACTIVE)"}
{"smiles": "CCOC(=O)c1ncc(-n2sc3ccccc3c2=O)s1", "note": "[COV19019]", "Class (MPro activity class)": "1 (Compounds with IC50 < 10 µM or with a percentage of enzyme inhibition >50% at 10 µM were labelled as ACTIVE)"}
{"smiles": "COC(=O)CC(=O)Nc1nc2c(s1)CC(NC(=O)c1[nH]c(C)c(Cl)c1Cl)CC2", "note": "(stereo not drawn) [Cpd 53]", "Class (MPro activity class)": "0 (compounds with IC50 > 20 μM, percentage inhibition <80% at 20 µM or 50 μM, or percentage enzyme inhibition <50% at 10 µM were labelled as INACTIVE)"}
{"smiles": "Cc1cccc(C(N)=O)c1I", "note": "[COV19036]", "Class (MPro activity class)": "0 (compounds with IC50 > 20 μM, percentage inhibition <80% at 20 µM or 50 μM, or percentage enzyme inhibition <50% at 10 µM were labelled as INACTIVE)"}
{"smiles": "Cc1cccc(Cl)c1NC(=O)c1ccccc1I", "note": "[COV19028]", "Class (MPro activity class)": "0 (compounds with IC50 > 20 μM, percentage inhibition <80% at 20 µM or 50 μM, or percentage enzyme inhibition <50% at 10 µM were labelled as INACTIVE)"}
{"smiles": "O=C(Nc1ccc(C(F)(F)F)cc1)c1ccccc1I", "note": "[COV19037]", "Class (MPro activity class)": "0 (compounds with IC50 > 20 μM, percentage inhibition <80% at 20 µM or 50 μM, or percentage enzyme inhibition <50% at 10 µM were labelled as INACTIVE)"}
{"smiles": "O=C(Cn1ccnc1NC(=O)c1ccccc1I)NCc1ccccc1", "note": "[COV19022]", "Class (MPro activity class)": "0 (compounds with IC50 > 20 μM, percentage inhibition <80% at 20 µM or 50 μM, or percentage enzyme inhibition <50% at 10 µM were labelled as INACTIVE)"}
{"smiles": "O=C(Nc1nc2c(s1)CC(NC(=O)c1cc(Br)c(Br)[nH]1)CC2)c1c[nH]cn1", "note": "(stereo not drawn) [Cpd 47]", "Class (MPro activity class)": "0 (compounds with IC50 > 20 μM, percentage inhibition <80% at 20 µM or 50 μM, or percentage enzyme inhibition <50% at 10 µM were labelled as INACTIVE)"}
{"smiles": "CC(=NNC(N)=[Se])c1cc2ccccc2oc1=O", "note": "[COV19145]", "Class (MPro activity class)": "0 (compounds with IC50 > 20 μM, percentage inhibition <80% at 20 µM or 50 μM, or percentage enzyme inhibition <50% at 10 µM were labelled as INACTIVE)"}
{"smiles": "O=S(=O)(C=Cc1ccc2nonc2c1)c1ccccc1", "note": "[COV19498]", "Class (MPro activity class)": "0 (compounds with IC50 > 20 μM, percentage inhibition <80% at 20 µM or 50 μM, or percentage enzyme inhibition <50% at 10 µM were labelled as INACTIVE)"}
{"smiles": "COc1ccc2nc(N3C(=O)C(O)=C(C(=O)c4ccc5c(c4)OCCO5)C3c3ccc(O)c(OC)c3)sc2c1", "note": "(stereo not drawn) [ADRMC156]", "Class (MPro activity class)": "0 (compounds with IC50 > 20 μM, percentage inhibition <80% at 20 µM or 50 μM, or percentage enzyme inhibition <50% at 10 µM were labelled as INACTIVE)"}
{"smiles": "CCOC(=O)C(=O)Nc1nc2c(s1)CC(NC(=O)c1cc(Br)c(Br)[nH]1)CC2", "note": "(stereo not drawn) [Cpd 55]", "Class (MPro activity class)": "0 (compounds with IC50 > 20 μM, percentage inhibition <80% at 20 µM or 50 μM, or percentage enzyme inhibition <50% at 10 µM were labelled as INACTIVE)"}
{"smiles": "Cc1[nH]c(C(=O)Nc2ccc(C(=O)O)cc2)c(Cl)c1Cl", "note": "[UL-NNS 38-1]", "Class (MPro activity class)": "0 (compounds with IC50 > 20 μM, percentage inhibition <80% at 20 µM or 50 μM, or percentage enzyme inhibition <50% at 10 µM were labelled as INACTIVE)"}
{"smiles": "COc1cccc(OC)c1NC(=O)c1ccccc1I", "note": "[COV19031]", "Class (MPro activity class)": "0 (compounds with IC50 > 20 μM, percentage inhibition <80% at 20 µM or 50 μM, or percentage enzyme inhibition <50% at 10 µM were labelled as INACTIVE)"}
{"smiles": "Cc1ccc(NC(=O)c2ccccc2I)cc1", "note": "[COV19025]", "Class (MPro activity class)": "0 (compounds with IC50 > 20 μM, percentage inhibition <80% at 20 µM or 50 μM, or percentage enzyme inhibition <50% at 10 µM were labelled as INACTIVE)"}
{"smiles": "O=C(Nc1ccccc1)c1ccccc1I", "note": "[COV19026]", "Class (MPro activity class)": "0 (compounds with IC50 > 20 μM, percentage inhibition <80% at 20 µM or 50 μM, or percentage enzyme inhibition <50% at 10 µM were labelled as INACTIVE)"}
{"smiles": "O=c1[nH]sc2ccccc12", "note": "[COV19001]", "Class (MPro activity class)": "1 (Compounds with IC50 < 10 µM or with a percentage of enzyme inhibition >50% at 10 µM were labelled as ACTIVE)"}
{"smiles": "Cc1ccc(S(=O)(=O)Nc2nc3cc(Cl)c(Oc4cccc(Cl)c4Cl)cc3[nH]2)cc1", "note": "[Cpd 31]", "Class (MPro activity class)": "0 (compounds with IC50 > 20 μM, percentage inhibition <80% at 20 µM or 50 μM, or percentage enzyme inhibition <50% at 10 µM were labelled as INACTIVE)"}
{"smiles": "O=C(O)C(=O)Nc1nc2c(s1)CC(NC(=O)c1cc(Br)c(Br)[nH]1)CC2", "note": "(stereo not drawn) [Cpd 56]", "Class (MPro activity class)": "0 (compounds with IC50 > 20 μM, percentage inhibition <80% at 20 µM or 50 μM, or percentage enzyme inhibition <50% at 10 µM were labelled as INACTIVE)"}
{"molecular_target": "SARS-CoV-2 MPro (Severe acute respiratory syndrome coronavirus 2, UniProt P0DTD1)", "test": "MPro activity assay (de-quenching of Edans fluorescence on cleavage of a Dabcyl/Edans peptide)", "type": "biochemical", "conditions": "read-out: MPro activity (%)", "units": {"activity at 25 µM": "%"}}
{"smiles": "O=C(O[C@@H]1Cc2c(O)cc(O)cc2O[C@@H]1c1ccc(O)c(O)c1)c1cc(O)c(O)c(O)c1", "note": "[5b, epicatechin gallate]", "activity at 25 µM": 0}
{"smiles": "[O-][n+]1onc2ccc(/C=C/[S+]([O-])c3ccc(F)cc3)cc21", "note": "(stereo not drawn) [10d]", "activity at 25 µM": "55.6 ± 3.4"}
{"smiles": "O=C(c1ccc2no[n+]([O-])c2c1)N1CCOCC1", "note": "[21d]", "activity at 25 µM": "78.7 ± 3.2"}
{"smiles": "[O-][n+]1onc2ccc(/C=C/[S+]([O-])c3ccccc3)cc21", "note": "(stereo not drawn) [8d]", "activity at 25 µM": "91.6 ± 0.1"}
{"smiles": "CC(C)(C)OC(=O)NC1CCCN(CC(=O)NC(Cc2ccccc2)C(=O)Nc2nc3cc(Sc4ccccc4)ccc3[nH]2)C1=O", "note": "(stereo not drawn) [3a]", "activity at 25 µM": "64.9 ± 11.6"}
{"smiles": "[O-][n+]1onc2ccc(/C=C\\[S+]([O-])c3ccccc3)cc21", "note": "(stereo not drawn) [12d]", "activity at 25 µM": "56.2 ± 0.5"}
{"smiles": "O=S(=O)(O)c1ccc(/C=N/N=c2\\scc(-c3cs/c(=N\\N=C\\c4ccc(S(=O)(=O)O)o4)n3-c3ccccc3)n2-c2ccccc2)o1", "note": "[5a]", "activity at 25 µM": "65.6 ± 10.9"}
{"smiles": "O=S(=O)(/C=C\\c1ccc2no[n+]([O-])c2c1)c1ccccc1", "note": "[18d]", "activity at 25 µM": "71.2 ± 0.9"}
{"smiles": "[O-][n+]1onc2cc(Cl)cc(Cl)c21", "note": "[1d]", "activity at 25 µM": "89.3 ± 1.9"}
{"molecular_target": "SARS-CoV-2 MPro (Severe acute respiratory syndrome coronavirus 2, UniProt P0DTD1)", "test": "MPro activity assay (de-quenching of Edans fluorescence on cleavage of a Dabcyl/Edans peptide)", "type": "biochemical", "conditions": "read-out: MPro inhibition", "units": {"inhibition at 25 µM": "%"}}
{"smiles": "COc1ccc(S(=O)(=O)Nc2nc3cc(Cl)c(Oc4cccc(Cl)c4Cl)cc3[nH]2)cc1", "note": "[30d]", "inhibition at 25 µM": 42}
